Laboratory results: patent US20230301966A1, “METHOD OF ENHANCING 5-HYDROXYTRYPTOPHAN (5-HTP) EXPOSURE” (Evecxia Therapeutics, Inc., priority 2021, published 2023)
Read-outs that look alike come from different tables or passages of the source.

Experiments:
[1] = cited from earlier work
[2] = Single-dose pharmacokinetic evaluation of gastroretentive tablets in human healthy volunteers (Example 5); format: in vivo; conditions: plasma, oral, 250 mg, single administration, high-fat meal
Protocol: The “fast” 5-HTP (250 mg) / low-dose carbidopa (0.625 mg, 2.5 mg, 5 mg, or 15 mg) gastroretentive tablets were administered orally to subjects from a cohort totaling 16 healthy subjects in a 5-period open label pharmacokinetics study. The subjects’ mean age was ~50 years (33 to 60 years). All were Caucasian, 11 males, 5 females. Average weight was ~80 kg and all body mass index (BMI) < 32.0 kg/m^2. The subjects were admitted to a clinic during the study. The swelling layer of the tablets was radiolabelled with ≤1 MBq ^111In to allow for parallel scintigraphic location of the tablets in the gastrointestinal tract. The tablets were administered in the morning, one tablet per administration, after ingestion of≥80% of the breakfast. Tablets were administered with 210 mL water followed by a radiolabelled drink (radiocontrast) containing NMT 4 MBq technetium-99m-diethylene triaminepentaacetic acid (99mTc-DTPA) in 30 mL of water. […]
In the first 4 periods, the tablets were administered after a standardized FDA high-fat, high-calorie meal (FDA, 2022), in order of increasing doses of carbidopa. […] The 5-HTP and carbidopa in the plasma were analyzed by liquid-chromatography-mass spectrometry. […]
Carbidopa plasma was below lower limit of quantification (1 ng/ml) at all timepoints at the 0.625 mg carbidopa dose strength, and for most time points at the 2.5 mg carbidopa dose strength. […]

[3] = PK simulation to steady-state at twice-daily dosing by non-parametric superposition (NPS); set-up: species or system human; conditions: plasma 5-HTP, steady-state at twice-daily administration
From the text: Given this T½ for 5-HTP and the known metabolism of 5-HTP by AAAD, non-parametric superpositioning (NPS) pharmacokinetic modeling can be applied to predict steady-state 5-HTP plasma exposure. NPS is an established method known in the field to generally predict steady-state plasma levels of an active pharmaceutical compound. NPS assumes that each dose of an active pharmaceutical compound is metabolized independently of other doses; that the rate and extent of absorption and average systemic clearance are the same for each dosing interval; and that linear pharmacokinetics apply. Based on NPS, the steady-state 5-HTP plasma exposure would be expected to be about 0.25-fold higher (to total about 1.25-fold) than that observed after single-administration. Further, given the T½, steady-state plasma exposure would, according to standard assumptions, be expected to be reached within 5-6 half-lives, i.e., about 1 day.
Plasma pharmacokinetics parameters were estimated using standard Phoenix WinNonlin methods. Data are presented as geometric mean ± SEM. The 5-HTP plasma profiles after single tablet administration of “fast” 5-HTP (250 mg) / low-dose carbidopa (15 mg) tablets following either an FDA high-fat high-calorie meal versus after an FDA moderate-fat, moderate-calorie meal are shown in FIG. 6B. […]

[4] = cited from earlier work; remark: listed apart in the source
[5] = Excipient compatibility of 5-HTP and carbidopa blends, storage at 40° C; format: physicochemical; conditions: for 5-HTP Impurities at T= 1 month (%) Total / Carbidopa Impurities at T= 1 month (%) Total / 5-HTP Impurities at T= 1 month (%) LSI / Carbidopa Impurities at T= 1 month (%) LSI: 1 month at 40° C; for 5-HTP Impurities at T=7 (%) Total / Carbidopa Impurities at T=7 (%) Total / 5-HTP Impurities at T=7 (%) LSI / Carbidopa Impurities at T=7 (%) LSI: 7 days at 40° C; for 5-HTP Impurities at T= 1 month (%) LSI / Carbidopa Impurities at T= 1 month (%) LSI / 5-HTP Impurities at T=7 (%) LSI / Carbidopa Impurities at T=7 (%) LSI / 5-HTP Impurities at T=0 (%) LSI / Carbidopa Impurities at T=0 (%) LSI: largest single impurity
Protocol: Excipient compatibility studies were performed to examine the stability of 5-HTP and carbidopa mixed together, either the two APIs alone or in the presence of one or two excipients. The stability (assay and level of impurities) was tested using small aliquots of 5-HTP (300 mg) and carbidopa (25 mg) blended together, with or without together excipients. The API/excipient ratios were based on the approximate composition of gastroretentive tablets of 5-HTP and carbidopa in Table 1. There were no significant increases in the levels of impurities for any of the API/excipient(s) combinations at T=0, 7 days and 1 month of storage at 40° C. The maximum percentage increase (largest single impurity) for carbidopa was 0.44%, 0.55%, and 0.86% at T=0, 7 days and 1 month, respectively. The maximum percentage increase for 5-HTP was 0.27%, 0.48%, and 0.49% at T=0, 7 days and 1 month, respectively.

SMILES	aqueous solubility [4]	5-HTP Impurities at T= 1 month (%) Total [5] [%]	Carbidopa Impurities at T= 1 month (%) Total [5] [%]	5-HTP Impurities at T=7 (%) Total [5] [%]	Carbidopa Impurities at T=7 (%) Total [5] [%]	5-HTP Impurities at T=0 (%) Total [5] [%]	Carbidopa Impurities at T=0 (%) Total [5] [%]	5-HTP Impurities at T= 1 month (%) LSI [5] [%]	Carbidopa Impurities at T= 1 month (%) LSI [5] [%]	5-HTP Impurities at T=7 (%) LSI [5] [%]	Carbidopa Impurities at T=7 (%) LSI [5] [%]	5-HTP Impurities at T=0 (%) LSI [5] [%]	Carbidopa Impurities at T=0 (%) LSI [5] [%]	also measured
N[C@@H](Cc1ccc(O)c(O)c1)C(=O)O [L-DOPA]	–	–	–	–	–	–	–	–	–	–	–	–	–	time for L-DOPA plasma exposure to reach steady-state ([1]; L-DOPA/carbidopa therapy, 600-1200 mg/day and 120-150 mg/day): less than 12 h
N[C@@H](Cc1c[nH]c2ccc(O)cc12)C(=O)O [Sample 5-HTP, 5-hydroxytryptophan]	~ 15 mg/ml	–	–	–	–	–	–	–	–	–	–	–	–	half-life ([2]; read-out: Elimination half-life (Average) 5-HTP (converted)): 174 min; Tmax ([2]; read-out: TMax (Average) 5-HTP): 1 h; Relative steady-state average plasma exposure (average ng/ml gastroretentive /average ng/ml immediate release) [3]: 1; 5-HTP plasma exposure ([1]; 200 mg/day carbidopa with 1,150-2,900 mg/day 5-HTP, separate IR dosage forms, after 8-54 months (Magnussen and Van Woert, 1982b)): 2,000-10,000 ng/ml; Tmax ([1]; native 5-HTP immediate release): ~ 1 h; half-life T½ ([1]; native 5-HTP immediate release): ~ 2 h; oral bioavailability ([1]; native 5-HTP immediate release, one study (WO2019245925)): ~ 20%; bioavailability in the colon ([1]; one study (WO2019245925)): ~ 4%; bioavailability in the upper intestine ([1]; one study (WO2019245925)): ~ 20%
N[C@@H](Cc1c[nH]c2ccc(O)cc12)C(=O)O [Sample 17, 5-HTP (control)]	–	0.26	0.00	0.23	0.00	0.23	0.00	0.12	0.00	0.12	0.00	0.13	0.00	–
C[C@@](Cc1ccc(O)c(O)c1)(NN)C(=O)O [Sample 18, Carbidopa (control)]	–	0.00	0.79	0.00	0.45	0.00	0.41	0.00	0.27	0.00	0.28	0.00	0.27	–
C[C@@](Cc1ccc(O)c(O)c1)(NN)C(=O)O [carbidopa]	~ 1.5 mg/ml	–	–	–	–	–	–	–	–	–	–	–	–	T½ ([1]; known value): 1 to 2 h
